In PubChem BioAssay (NCI) one finds GI50 and TGI data, which are given here for 48 compounds.

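Tested at 5 concentrations; 48 h exposure; 96-well plates; endpoints linearly interpolated, else capped at highest concentration. GI50 is the concentration that inhibits growth by half. At the TGI there is no net growth.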 A value given as a limit tells only on which side of the number the result lay.

This test has as its system MDA-MB-468 breast. The experiment in a line: DTP human tumour cell line panel, 48 h.
As usually defined, the GI50 is the concentration at which growth is held to half of that of the control. For orientation: TGI means the concentration at which net growth stops. Low values mean more potent growth arrest, high ones less potent growth arrest. As to `COc1cc(/C=C/C(=O)c2ccccc2)cc(OC)c1OC`, the GI50 was 2.3 µM and the TGI came out at 8.32 µM.
For the compound `Cc1cc(Cl)ccc1OCc1nn2c(CCCCc3nnc4sc(COc5ccc(Cl)cc5C)nn34)nnc2s1`, the GI50 was 8.42 µM and the TGI was 81.2 µM.
As for `Clc1ccc(Cn2c(CN3CCCC3)nc3ccccc32)cc1`, the GI50 was 13.4 µM and the total growth inhibition concentration (TGI) amounted to 34.2 µM.
For `O=C(OCC1OC(n2cc(C(F)(F)F)c(=O)[nH]c2=O)CC1OC(=O)c1ccc([N+](=O)[O-])cc1)c1ccc([N+](=O)[O-])cc1` (stereo unspecified) the same measures were 28 µM and above 100 µM.
On the same counts, the results for `CC(=O)Oc1cc(C(C)C)c(OCCN(C)C)cc1C` are above 100 µM and above 100 µM.
On the same counts, the results for `CC1(C)CC[C@]2(C(=O)Nc3ccccn3)CC[C@]3(C)C(=CC[C@@H]4[C@@]5(C)C/C(=C/c6ccncc6)C(=O)C(C)(C)[C@@H]5CC[C@]43C)[C@@H]2C1` are 2.12 µM and above 100 µM.
Consider `COc1cc(/C=C2\C(=O)Nc3ccccc32)cc(OC)c1O`, for which the GI50 is 1.57 µM and the TGI is 7.67 µM.
For `O=C1C=CC2(O)OC/C(=C\c3ccccc3)C(O)=C2C1=O` (stereo unspecified) the same measures were 1.62 µM and 3.23 µM.
With `CC(C)Oc1ccc(-c2nn([C@@H](C)c3oc4ccc(F)cc4c(=O)c3-c3cccc(F)c3)c3ncnc(N)c23)cc1F`, the GI50 is 37.1 µM and the TGI is above 100 µM.
For `COc1ccc(C(=O)c2sc3nc4c(cc3c2N)CCCC4)cc1OC` the same measures were 2.46 µM and 23.6 µM.
For `O=C1/C=C/[C@@H](O)[C@@H]2C[C@@H](O)C[C@H]2/C=C/CCC[C@H](CCc2ccccc2)O1` the same measures were below 0.01 µM and 0.0251 µM.
For `Cc1ccc(C2=NN(c3ccc(S(C)(=O)=O)cc3)C(=O)CC2)cc1` the same measures were 1.23 µM and 4.86 µM.
`COc1ccc(-c2ccc(-c3ccc(C(=N)N)c(F)c3)s2)cc1`: the GI50 is 0.373 µM and the TGI is 1.21 µM.
For `Nc1nc2cc(O)ccc2n2cc3c(F)cccc3c12` the same measures were 2.66 µM and above 100 µM.
On to `Cc1cc2cn3c4ccc(O)cc4nc(N)c3c2cc1C`, for which the GI50 is 0.222 µM and the TGI is 0.626 µM.
In the case of `CCc1cccc2c3c(sc12)C(c1ccc(F)cc1)C(C#N)=C(/N=C/c1ccc(Cl)cc1)O3` (stereo unspecified), the GI50 is 0.248 µM and the TGI is 0.812 µM.
For `COc1cccc2c1O/C(=C\c1ncc([N+](=O)[O-])n1C)C2=O`, the GI50 was 1.59 µM and the TGI was determined as 4.3 µM.
On to `[2H]c1nc(C)nc([2H])c1-c1cc(NC[C@@H](C)c2cccc3c(C(=O)NC)ccnc23)ncn1`, for which the GI50 is 56 µM and the TGI was above 100 µM.
On the same counts, the results for `Cc1nc2cc(-c3nn(C(C)C)c4ncnc(N)c34)ccc2o1` are 0.00863 µM and 0.101 µM.
Take `CN(C)CCONC(=O)C12CC3CC(CC(C3)C1)C2`: the GI50 was above 100 µM and the TGI was above 100 µM.
In the case of `CC(C)N(CCCNC(=O)Nc1ccc(C(C)(C)C)cc1)C[C@H]1O[C@@H](n2ccc3c(N)ncnc32)[C@H](O)[C@@H]1O`, the GI50 is above 100 µM and the TGI was above 100 µM.
For the compound `C#CC[C@@H]1C[C@]2(C)[C@H]3CC[C@@H]4[C@H]5C(C(=C)C)CC[C@]5(C(=O)NCCCCN)CC[C@@]4(C)[C@]3(C)CC[C@H]2C(C)(C)[C@H]1OC(C)=O` (stereo partly specified), the GI50 is 1.78 µM and the TGI came to 3.59 µM.
For `O=C1OCC2=C1C(c1ccc3c(c1)OCO3)c1cc3c(cc1O2)OCO3` (stereo unspecified) the same measures were 0.938 µM and above 100 µM.
For `CCN(CC)CC(O)CNc1c2ccc(Cl)cc2nc2ccc(OC)cc12` (stereo unspecified) the same measures were 0.666 µM and 2.18 µM.
On to `Cc1ccc(CN(C)c2ccc(CO)c(Cl)c2)cc1`, for which the GI50 is 0.0389 µM and the TGI worked out at 0.166 µM.
On the same counts, the results for `CNCCCNc1nc2ccccc2c2c(=O)c3cc(F)ccc3sc12` are 1.18 µM and 2.6 µM.
On the same counts, the results for `Cn1c(-c2ccncc2)c(-c2ccc(F)cc2)c2ncccc21` are above 22.7 µM and above 25 µM.
For `O=c1ccccc(-c2ccc(Br)cc2)c1O` the same measures were 0.257 µM and 2.32 µM.
For the compound `CCc1ccc(C(=O)/C=C/C23c4ccccc4C(c4ccccc42)C2C(=O)NC(=O)C23)cc1` (stereo unspecified), the GI50 was 1.79 µM and the TGI was determined as 4.13 µM.
For `COC(=O)/C=C1/SC(=Nc2ccc(F)cc2)N(CCc2c[nH]c3ccc(O)cc23)C1=O` the same measures were 3.03 µM and 23.6 µM.
For the compound `COc1cc(OC)c(/C=C/c2cc[n+](C)c3ccccc23)c(OC)c1`, the GI50 is 0.36 µM and the TGI was found to be 5.01 µM.
On the same counts, the results for `O=C(O)c1ccc(NCc2nc3cc(Cl)c(Cl)cc3[nH]2)cc1` are 62 µM and above 100 µM.
For `O=C(Nc1ccc(Cl)cc1)Nc1ccc(Cl)c(C(F)(F)F)c1` the same measures were 1.67 µM and 4.8 µM.
For `Nc1c(C(=O)c2cccc(OC[C@@H](O)CO)c2)cnn1-c1ccc(F)cc1` the same measures were above 25 µM and above 25 µM.
On to `CC(=O)c1c(Nc2cccc(F)c2)[nH]c2c(Cl)cc(Cl)c(Cl)c2c1=O`, for which the GI50 is 0.317 µM and the TGI came to 1.35 µM.
For `COc1cc(-c2nn(-c3cccc(NC(=O)Nc4cccc(C(F)(F)F)c4)c3)cc2-c2ccncc2)ccc1Cl` the same measures were 0.369 µM and 2.09 µM.
On the same counts, the results for `COc1ccc(C(=S)N(C)NC(=O)CC(=O)NN(C)C(=S)c2ccc(OC)cc2)cc1` are 48.7 µM and above 100 µM.
On the same counts, the results for `COc1cc(C2CC(c3cccc(Nc4ccncc4)c3)=NN2c2ccccc2)cc(OC)c1OC` (stereo unspecified) are 1.49 µM and 2.95 µM.
In the case of `Nc1c(C(=O)Nc2cccc(C(F)(F)F)c2)sc2nc3c(cc12)C(O)CCC3` (stereo unspecified), the GI50 is 1.69 µM and the TGI was above 62.1 µM.
For `COc1ccc(C2C=C(c3ccc(OC)c(OC)c3)N=C3SC=CN32)c(Br)c1` (stereo unspecified) the same measures were 1.88 µM and 3.91 µM.
For the compound `O=c1ncc(I)cn1C1CC(O)C(CO)O1` (stereo unspecified), the GI50 is 935 µM and the TGI was determined as 2980 µM.
For `COc1ccc(/C=C2\COc3ccc(O)c(O)c3C2=O)cc1` the same measures were 1.24 µM and 3.94 µM.
For `CC(=O)N1CCC(Nc2ncc3cc(Oc4ccc(F)cc4F)c(=O)n(C)c3n2)CC1` the same measures were above 25 µM and above 25 µM.
On the same counts, the results for `c1ccc(-c2n(Cc3ccc4ccccc4c3)c3c4ccccc4c4ccccc4c3[n+]2Cc2ccc3ccccc3c2)cc1` are 0.23 µM and 0.845 µM.
In the case of `Cc1oc2c(C(=O)N/N=C\c3ccc(O)cc3O)c[nH]c2c1C`, the GI50 is 1.96 µM and the TGI stood at 18.3 µM.
As for `C[CH2][Pb]([CH2]C)([CH2]C)[O]C(=O)COC`, the GI50 was 0.201 µM and the TGI turned out to be 0.71 µM.
On the same counts, the results for `Cc1cc(=O)n2nnc3c4ccccc4ccc3n12` are 1.75 µM and 4.82 µM.
Turning to `c1ccc(CC(Cc2ccccc2)C2=NCCCN2)cc1`, the GI50 is 2.92 µM and the TGI is above 100 µM.
